Reference: ChEMBL document CHEMBL5113381, “Large-Scale Screening of Antifungal Peptides Based on Quantitative Structure-Activity Relationship” (2022)
Converted amounts (≈) assume the structure as drawn. Peptide text beside a SMILES is read from it.

Assays:
Assay type in all cases: functional
Candida albicans = assay: Antifungal activity against Candida albicans SC5314 measured after 24 to 48 hrs by CLSI method; conditions: time 24-48 hrs
Cryptococcus neoformans = assay: Antifungal activity against Cryptococcus neoformans H99 measured after 24 to 48 hrs by CLSI method; conditions: time 24-48 hrs
Pichia kudriavzevii = assay: Antifungal activity against Candida krusei IFM56881 measured after 24 to 48 hrs by CLSI method; conditions: time 24-48 hrs
Candida parapsilosis = assay: Antifungal activity against Candida parapsilosis ATCC 22019 measured after 24 to 48 hrs by CLSI method; conditions: Lodderomyces parapsilosis, time 24-48 hrs

MIC (Candida albicans) | MIC (Cryptococcus neoformans) | MIC (Pichia kudriavzevii) | MIC (Candida parapsilosis) | Compound
> 70.7 µM | 8.84 µM (≈ 32 µg/mL) | > 70.7 µM | 4.42 µM (≈ 16 µg/mL) | CC[C@H](C)[C@H](NC(=O)[C@H](C)NC(=O)[C@H](CCCCN)NC(=O)[C@H](CCCNC(=N)N)NC(=O)[C@@H](NC(=O)[C@H](CCCNC(=N)N)NC(=O)[C@H](CCCNC(=N)N)NC(=O)CNC(=O)[C@H](Cc1ccc(O)cc1)NC(=O)[C@H](CCCNC(=N)N)NC(=O)[C@H](C)NC(=O)CNC(=O)[C@H](Cc1ccccc1)NC(=O)[C@H](CCCNC(=N)N)NC(=O)CNC(=O)[C@H](C)NC(=O)[C@H](CO)NC(=O)[C@H](CCCCN)NC(=O)[C@@H](NC(=O)[C@H](CCCCN)NC(=O)[C@@H](NC(=O)CNC(=O)[C@H](CCCCN)NC(=O)[C@H](CCCCN)NC(=O)[C@H](CCCNC(=N)N)NC(=O)[C@H](CCCCN)NC(=O)[C@H](CCC(N)=O)NC(=O)[C@H](CCCCN)NC(=O)[C@H](CCCCN)NC(=O)[C@@H](NC(=O)[C@@H](N)CCSC)[C@@H](C)O)[C@@H](C)CC)[C@@H](C)O)[C@@H](C)CC)C(=O)O (H-MTKKQKRKKGIKTKSAGRFGARYGRRIRKAI-OH)
> 92.4 µM | > 92.4 µM | > 92.4 µM | > 92.4 µM | CC[C@H](C)[C@H](NC(=O)[C@H](CCCCN)NC(=O)[C@H](CC(C)C)NC(=O)[C@H](Cc1ccccc1)NC(=O)[C@H](CC(C)C)NC(=O)[C@H](Cc1ccccc1)NC(=O)[C@@H](NC(=O)[C@H](CO)NC(=O)[C@H](CO)NC(=O)[C@@H](NC(=O)[C@H](Cc1ccccc1)NC(=O)[C@@H](NC(=O)[C@H](CO)NC(=O)[C@H](Cc1ccc(O)cc1)NC(=O)[C@@H](N)CCSC)C(C)C)[C@@H](C)CC)[C@@H](C)CC)C(=O)N[C@@H](CCCNC(=N)N)C(=O)N[C@@H](Cc1ccccc1)C(=O)N[C@@H](CCCCN)C(=O)N[C@@H](CC(C)C)C(=O)N[C@@H](Cc1ccc(O)cc1)C(=O)N1CCC[C@H]1C(=O)N[C@@H](CCCNC(=N)N)C(=O)O (H-MYSVFISSIFLFLKIRFKLYPR-OH)
> 120 µM | > 120 µM | > 120 µM | > 120 µM | CC(C)C[C@H](NC(=O)[C@H](CCC(=O)O)NC(=O)[C@H](CCCCN)NC(=O)[C@H](CC(C)C)NC(=O)[C@@H](NC(=O)[C@@H]1CCCN1)C(C)C)C(=O)N[C@@H](CCCCN)C(=O)N[C@@H](CO)C(=O)N[C@H](C(=O)N[C@@H](CCC(N)=O)C(=O)N[C@@H](CCCCN)C(=O)N[C@H](C(=O)N[C@@H](CCCCN)C(=O)N[C@@H](CO)C(=O)NCC(=O)N[C@@H](CC(=O)O)C(=O)N[C@H](C(=O)N[C@@H](CC(C)C)C(=O)N[C@@H](Cc1ccc(O)cc1)C(=O)O)[C@@H](C)O)[C@@H](C)O)C(C)C (H-PVLKELKSVQKTKSGDTLY-OH)
4.07 µM (≈ 10 µg/mL) | 1.02 µM (≈ 2.51 µg/mL) | 4.07 µM (≈ 10 µg/mL) | 1.02 µM (≈ 2.51 µg/mL) | CC(C)[C@H](NC(=O)[C@H](CCCNC(=N)N)NC(=O)[C@H](Cc1ccccc1)NC(=O)[C@H](CS)NC(=O)[C@H](Cc1c[nH]c2ccccc12)NC(=O)[C@H](CCCNC(=N)N)NC(=O)[C@@H](N)CCCNC(=N)N)C(=O)N[C@@H](CS)C(=O)N[C@@H](Cc1ccc(O)cc1)C(=O)N[C@@H](CCCNC(=N)N)C(=O)NCC(=O)N[C@@H](Cc1ccccc1)C(=O)N[C@@H](CS)C(=O)N[C@@H](Cc1ccc(O)cc1)C(=O)N[C@@H](CCCNC(=N)N)C(=O)N[C@@H](CCCCN)C(=O)N[C@@H](CS)C(=O)N[C@@H](CCCNC(=N)N)C(=O)O (H-RRWCFRVCYRGFCYRKCR-OH)
77.9 µM (≈ 256 µg/mL) | 38.9 µM (≈ 128 µg/mL) | 19.5 µM (≈ 64 µg/mL) | 77.9 µM (≈ 256 µg/mL) | CC[C@H](C)[C@H](NC(=O)[C@H](C)NC(=O)[C@H](CS)NC(=O)[C@H](CO)NC(=O)[C@@H](NC(=O)[C@H](Cc1ccccc1)NC(=O)[C@@H](N)Cc1ccc(O)cc1)[C@@H](C)CC)C(=O)N[C@@H](Cc1cnc[nH]1)C(=O)N[C@@H](Cc1ccccc1)C(=O)N[C@@H](CCCCN)C(=O)N[C@H](C(=O)N[C@@H](CC(C)C)C(=O)N[C@@H](CCCCN)C(=O)N[C@H](C(=O)N[C@@H](CCCNC(=N)N)C(=O)N[C@@H](CO)C(=O)N[C@@H](C)C(=O)N[C@@H](C)C(=O)N[C@@H](CCCCN)C(=O)N[C@@H](CCCNC(=N)N)C(=O)N[C@@H](CCCNC(=N)N)C(=O)N[C@@H](CCC(=O)O)C(=O)N[C@@H](Cc1cnc[nH]1)C(=O)N[C@H](C(=O)N[C@@H](CCCCN)C(=O)N[C@@H](CC(C)C)C(=O)N[C@@H](CCCNC(=N)N)C(=O)O)[C@@H](C)O)[C@@H](C)CC)[C@@H](C)CC (H-YFISCAIHFKILKIRSAAKRREHTKLR-OH)
28.1 µM (≈ 64 µg/mL) | 7.02 µM (≈ 16 µg/mL) | 7.02 µM (≈ 16 µg/mL) | 14 µM (≈ 32 µg/mL) | CC[C@H](C)[C@H](NC(=O)[C@H](Cc1cnc[nH]1)NC(=O)[C@H](C)NC(=O)[C@H](CC(C)C)NC(=O)[C@H](CC(C)C)NC(=O)[C@H](CCCCN)NC(=O)[C@H](CCSC)NC(=O)[C@@H](NC(=O)[C@@H](NC(=O)[C@H](Cc1cnc[nH]1)NC(=O)[C@H](Cc1c[nH]c2ccccc12)NC(=O)[C@@H](NC(=O)[C@H](CCCCN)NC(=O)[C@H](Cc1cnc[nH]1)NC(=O)[C@@H](NC(=O)[C@H](CCCCN)NC(=O)[C@H](Cc1cnc[nH]1)NC(=O)[C@@H](N)Cc1ccc(O)cc1)[C@@H](C)CC)C(C)C)[C@@H](C)CC)[C@@H](C)CC)C(=O)O (H-YHKIHKVWHIIMKLLAHI-OH)
> 95 µM | > 95 µM | > 95 µM | > 95 µM | CC[C@H](C)[C@H](NC(=O)[C@H](CCCNC(=N)N)NC(=O)CNC(=O)[C@H](CC(C)C)NC(=O)[C@H](Cc1ccccc1)NC(=O)[C@H](CCC(N)=O)NC(=O)[C@H](Cc1ccccc1)NC(=O)[C@@H](N)C(C)C)C(=O)N[C@H](C(=O)N[C@@H](Cc1cnc[nH]1)C(=O)N[C@@H](Cc1cnc[nH]1)C(=O)N[C@H](C(=O)NCC(=O)N[C@@H](CC(N)=O)C(=O)N[C@@H](Cc1ccccc1)C(=O)N[C@H](C(=O)N[C@@H](Cc1cnc[nH]1)C(=O)NCC(=O)N[C@@H](Cc1ccccc1)C(=O)N[C@@H](CO)C(=O)N[C@@H](Cc1cnc[nH]1)C(=O)N[C@H](C(=O)N[C@@H](Cc1ccccc1)C(=O)O)C(C)C)C(C)C)C(C)C)[C@@H](C)CC [Clavanin B] (H-VFQFLGRIIHHVGNFVHGFSHVF-OH)
